{
  "source": "patent US9216183B2",
  "about": "“Topical treatment for chemotherapy induced eyelash loss or hypotrichosis using prostamide F2 alpha agonists” (ALLERGAN, INC., priority 2002, dated 2015)",
  "tested_on": "eyelashes of subjects with chemotherapy-induced hypotrichosis",
  "assay": "Digital image analysis of upper eyelash length, thickness, darkness, chemotherapy-induced hypotrichosis",
  "assay_type": "in vivo, human",
  "settings": "for Upper eyelash length, median percent change from baseline / Upper eyelash thickness, median percent change from baseline / Upper eyelash darkness, median percent change from baseline: chemotherapy-induced; for Upper eyelash darkness, median percent change from baseline / Mean change from baseline in eyelash darkness: negative = darker",
  "description": "Efficacy was also assessed using more conservative criteria of 2-grade improvement in GEA. […] In addition to the investigator global assessment (GEA) and subjects own assessment (ESQ), the eyelash length, thickness/fullness and darkness were measures using digital image analysis. Secondary efficacy measures were based on digital image analysis (DIA) of eyelash characteristics: upper eyelash length (millimeters [mm]), thickness (mm^2), and darkness (intensity units). For darkness, a negative value in terms of change from baseline indicated darker eyelashes. Upper eyelash characteristics of length, thickness, and darkness were determined by a validated DIA method. The reliability and reproducibility of DIA have been verified within the acceptance criteria of 0.05% or less of mean coefficient of variance. The principal variables for the secondary efficacy assessments are: change from baseline in upper eyelash length (mm), average progressive eyelash thickness (mm^2), and eyelash darkness (intensity units) at months 4, 6, 10, and 12 or early termination. Descriptive statistics of the raw value at baseline and percent change from baseline at follow-up visits were summarized by treatment group for each principal measure of the 3 secondary variables of eyelash characteristics. Between-group comparisons were performed using a van Elteren test stratified by hypotrichosis etiology.",
  "key": {"[1]": {"settings": "postchemotherapy, Month 4, bimatoprost from day 1"}, "[2]": {"settings": "postchemotherapy, Month 4, bimatoprost from day 1, listed as Bim/Bim"}, "[3]": {"settings": "postchemotherapy, Month 6, bimatoprost from day 1"}, "[4]": {"settings": "postchemotherapy, Month 6, bimatoprost from day 1, listed as Bim/Bim"}, "[5]": {"settings": "postchemotherapy, Month 6, bimatoprost from day 1, listed as bimatoprost"}, "[6]": {"settings": "postchemotherapy, Month 10, Bim/Bim"}, "[7]": {"settings": "postchemotherapy, Month 10, Veh/Bim (bimatoprost since month 6)"}, "[8]": {"settings": "postchemotherapy, Month 12, Bim/Bim"}, "[9]": {"settings": "postchemotherapy, Month 12, Veh/Bim (bimatoprost since month 6)"}, "[10]": {"settings": "postchemotherapy, Month 12, bimatoprost up to 12 months"}},
  "data": [
    {"smiles": "CCNC(=O)CCC/C=C\\C[C@@H]1[C@@H](/C=C/[C@@H](O)CCc2ccccc2)[C@H](O)C[C@@H]1O", "note": "[Bim 0.03%, bimatoprost]", "values": [
      {"measurement": "Upper eyelash length, median percent change from baseline", "setting": "Month 4", "result": 28.50, "unit": "%"},
      {"measurement": "Upper eyelash thickness, median percent change from baseline", "setting": "Month 4", "result": 180.10, "unit": "%"},
      {"measurement": "Upper eyelash length, median percent change from baseline", "setting": "Month 4, listed as Bimatoprost", "result": "28.5 (94) %"},
      {"measurement": "Upper eyelash thickness, median percent change from baseline", "setting": "Month 4, listed as Bimatoprost", "result": "180.1 (64) %"},
      {"measurement": "Upper eyelash darkness, median percent change from baseline", "setting": "Month 4", "result": "−14.40", "unit": "%"},
      {"measurement": "Upper eyelash darkness, median percent change from baseline", "setting": "Month 4, listed as Bimatoprost", "result": "−14.4 (65) %"},
      {"measurement": "Upper eyelash length, median percent change from baseline", "setting": "Month 6, listed as Bimatoprost", "result": "37.8 (94) %"},
      {"measurement": "Upper eyelash thickness, median percent change from baseline", "setting": "Month 6, listed as Bimatoprost", "result": "245.9 (64) %"},
      {"measurement": "Upper eyelash length, median percent change from baseline", "setting": "Month 6, listed as bimatoprost", "result": 37.84, "unit": "%"},
      {"measurement": "Upper eyelash thickness, median percent change from baseline", "setting": "Month 6, listed as bimatoprost", "result": 245, "unit": "%"},
      {"measurement": "Upper eyelash darkness, median percent change from baseline", "setting": "Month 6", "result": "−16.3 (65) %"},
      {"measurement": "Mean change from baseline in average progressive eyelash thickness", "setting": "[1]", "result": 0.67, "unit": "mm^2"},
      {"measurement": "Mean change from baseline in eyelash length", "setting": "[1]", "result": 1.48, "unit": "mm"},
      {"measurement": "Mean change from baseline in average progressive eyelash thickness", "setting": "[2]", "result": "0.67 ± 0.514", "unit": "mm^2"},
      {"measurement": "Mean change from baseline in eyelash length", "setting": "[2]", "result": "1.48 ± 1.391", "unit": "mm"},
      {"measurement": "Mean change from baseline in eyelash darkness", "setting": "postchemotherapy, Month 4", "result": "−22.48"},
      {"measurement": "Eyelash length, mean percent increase from baseline", "setting": "postchemotherapy, Month 6", "result": 48.08, "unit": "%"},
      {"measurement": "Eyelash thickness, mean percent increase from baseline", "setting": "postchemotherapy, Month 6", "result": 428, "unit": "%"},
      {"measurement": "Mean change from baseline in average progressive eyelash thickness", "setting": "[3]", "result": 0.83, "unit": "mm^2"},
      {"measurement": "Mean change from baseline in eyelash length", "setting": "[3]", "result": 1.99, "unit": "mm"},
      {"measurement": "Mean change from baseline in average progressive eyelash thickness", "setting": "[4]", "result": "0.83 ± 0.576", "unit": "mm^2"},
      {"measurement": "Mean change from baseline in eyelash length", "setting": "[4]", "result": "1.99 ± 1.557", "unit": "mm"},
      {"measurement": "Mean change from baseline in average progressive eyelash thickness", "setting": "[5]", "result": 0.83, "unit": "mm^2"},
      {"measurement": "Mean change from baseline in eyelash length", "setting": "[5]", "result": 1.99, "unit": "mm"},
      {"measurement": "Mean change from baseline in eyelash darkness", "setting": "postchemotherapy, Month 6", "result": "−26.46"},
      {"measurement": "Mean change from baseline in average progressive eyelash thickness", "setting": "[6]", "result": "0.88 ± 0.516", "unit": "mm^2"},
      {"measurement": "Mean change from baseline in eyelash length", "setting": "[6]", "result": "2.14 ± 1.455", "unit": "mm"},
      {"measurement": "Mean change from baseline in average progressive eyelash thickness", "setting": "[7]", "result": "0.63 ± 1.042", "unit": "mm^2"},
      {"measurement": "Mean change from baseline in eyelash length", "setting": "[7]", "result": "2.27 ± 1.439", "unit": "mm"},
      {"measurement": "Mean change from baseline in average progressive eyelash thickness", "setting": "[8]", "result": "0.85 ± 0.575", "unit": "mm^2"},
      {"measurement": "Mean change from baseline in eyelash length", "setting": "[8]", "result": "2.01 ± 1.504", "unit": "mm"},
      {"measurement": "Mean change from baseline in average progressive eyelash thickness", "setting": "[9]", "result": "0.58 ± 1.085", "unit": "mm^2"},
      {"measurement": "Mean change from baseline in eyelash length", "setting": "[9]", "result": "2.07 ± 1.442", "unit": "mm"},
      {"measurement": "Eyelash length, mean percent increase from baseline", "setting": "[10]", "result": 49.88, "unit": "%"},
      {"measurement": "Eyelash length, median percent increase from baseline", "setting": "[10]", "result": 39.08, "unit": "%"},
      {"measurement": "Eyelash thickness, mean percent increase from baseline", "setting": "[10]", "result": 478, "unit": "%"},
      {"measurement": "Eyelash thickness, median percent increase from baseline", "setting": "[10]", "result": 212, "unit": "%"}
    ]}
  ]
}
